The numbers were not newly measured in US20090312688A1, “IONTOPHORESIS DRUG DELIVERY FORMULATION PROVIDING ACCEPTABLE SENSATION AND DERMAL ANESTHESIA” (Vyteris, Inc., priority 2005, published 2009), which cites them from elsewhere.

For the data set the following is noted: iontophoresis in vitro across human skin.
In the case of `CCCNC(C)C(=O)Nc1ccccc1C` (stereo not drawn) [prilocaine], the “cumulative delivery relative to lidocaine” value was “slightly greater delivery”.

With `CCN(CC)CCOC(=O)c1ccc(N)cc1` [procaine], the “cumulative delivery relative to lidocaine” value is “slightly greater delivery”.

Consider `CCCN(CC)C(CC)C(=O)Nc1c(C)cccc1C` (stereo not drawn) [etidocaine], for which the “cumulative delivery relative to lidocaine” value is “slightly greater delivery”.
